The values that follow come from patent US8815887B2, “Prophylactic or therapeutic method for Sjogren's syndrome” (Takeda Pharmaceutical Company Limited, priority 2012, dated 2014).

Assay type in all cases: in vivo
Data set [1] concerns CD8+ T cells in the salivary gland. Description: CD8 mRNA level (CD8+ T cells) in salivary gland tissue, normalized to β-actin. The note with it: 26-week-old NOD mouse. An excerpt:
(§1) The salivary gland of the 26-week-old NOD mice used in Experimental Example 2 for the measurement of the saliva secretion amount was removed, the total RNA was recovered from there, and the mRNA levels of CD4, CD8 and CCR9 were normalize with the β-actin expression level as the internal standard.

Data set [2] deals with NOD/ShiLtJ mouse. Description: Tolerability in the long-term efficacy study (Experimental Example 3). To be noted: relatively long term, same dose range (50 and 250 mg/kg). Here is the method: (§2) The saliva secretion amount in 23-week-old NOD mice administered with compound A or compound B was measured in the same manner as in Experimental Example 2.
The test system of data set [3] is CD4+ T cells in the salivary gland. Description: CD4 mRNA level (CD4+ T cells) in salivary gland tissue, normalized to β-actin. To be noted: 26-week-old NOD mouse, compound A treatment group (50 and 250 mg/kg).
Excerpt: as §1

In another data set the test system is anti-SS-A/Ro antibody. Description: Anti-SS-A/Ro Ig ELISA of blood of Sjogren's syndrome animal model. To be noted: 26-week-old NOD mouse; for onset frequency (positive anti-SS-A/Ro, antibody titer not less than 30 Unit): vehicle 100% onset. Here is the method:
Blood samples from the 26-week-old NOD mice used in Experimental Example 2 for the measurement of the saliva secretion amount were collected, and ELISA test was carried out for two subsets of anti-SS-A/Ro and anti-SS-B/La found commonly in Sjogren's syndrome.
For quantification of the Total Anti-SSA Ig (IgG+IgA+IgM) in the serum, commercially available Mouse Anti-SSA Total Ig ELISA Kit Cat. No. 5710 (manufactured by ALPHA DIAGNOSTIC INTERNATIONAL) was used. The standard protocol was partly modified. A mouse serum sample was diluted 1/10-fold, the serum of C57BL/6 mouse was added to anti-SSA calibrator solution (Calibrator solution) to give 10% serum.
On the technique in general: In an ELISA, binding on a coated surface is turned into a signal by an enzyme label.

Data set [4] concerns NOD/ShiLtJ mouse. Description: Saliva secretion amount by pilocarpine stimulation in Sjogren's syndrome animal model.
Excerpt: As an animal model for Sjogren's syndrome, most widely used NOD/ShiLtJ mouse (hereinafter sometimes referred to as NOD mouse) was selected since it meets the both conditions of the diagnosis standard: 1) development of dry eye and dry mouth, 2) increase of anti-SS-A/Ro and anti-SS-B/La antibody titer, and is easily available (Tegan N. Lavoie et. al., Journal of Biomedicine and Biotechnology Volume 2011 (2011), Article ID 549107, pp 1-14). 6-Week-old NOD mice were purchased from The Jackson Laboratory (US), after acclimatization for 1-2 weeks, animals before onset of diabetes were divided into 3 groups (maximum 30 mice per group) by randomization into each of the groups based on the body weight measured before the start of the test drug administration and the data of saliva secretion amount by pilocarpine stimulation under ketamine•xylazine anesthesia and subjected to the test. During the test drug treatment, the body weight and the blood glucose level were monitored at least once a week. The blood glucose level of several μL of the blood collected from the tail vein under 1-5% isoflurane anesthesia was measured by a blood glucose level measuring instrument (Accu-Chek Aviva Nano, Roche diagnostics K.K.). The diabetes diagnosis criteria was not less than 250 mg/dL, and one insulin pellet (LinBit, LinShin Canada, Inc.) was subcutaneously transplanted under 1-5% isoflurane anesthesia into the abdomen of the mouse that developed diabetes, and the blood glucose was controlled during the study by monitoring the blood glucose level, and adding or removing the pellet as necessary.
Compound A was orally administered twice daily (minimum ic dosing interval 6 hours) every day except Saturdays and Sundays. The dose of compound A was 50 mg/kg or 250 mg/kg, and 0.2 mL was orally administered as a single dose. The concentration of compound A was appropriately controlled by calculating an average body weight of the group once a week from the body weights of the NOD mice, and adjusting the concentration such that the administration of 0.2 mL results in the administration of each dose. On the other hand, the vehicle group without administration of compound A was orally administered with 0.2 mL of 0.5% methylcellulose solution in the same schedule as above.
Under anesthesia by intraperitoneal administration of a mixture (10 mL/kg) of ketamine (100 mg/kg) and xylazine (10 mg/kg), the saliva secreted in 15 min after subcutaneous administration of pilocarpine (5 mg/kg) was collected with defatted cotton, and the secretion amount was calculated from the defatted cotton weight before and after the measurement.
This measurement was performed twice when the mice reached 21-week-old and 26-week-old.
as §2

A short description of data set [5]: Time-course changes in plasma concentration in Sjogren's syndrome animal model. To be noted: NOD mouse, oral twice per day 50 and 250 mg/kg, repeated for 19 weeks. Here is the method: The compound was orally administered twice per day to 8-week-old NOD mouse under the following conditions, and administration was repeated for 19 weeks.
To the plasma (5 μL) collected from the NOD mouse were added a solvent solution (dimethyl sulfoxide/acetonitrile (2:8), 5 μL), and compound A solution (compound A dissolved in solvent solution, 5 μL) or compound B solution (compound B dissolved in solvent solution, 5 μL) for drawing an analytical curve. An internal standard substance (acetonitrile (115 μL) containing a deuterated form of compound A, or diclofenac sodium, 100 ng/mL)) was added, and the mixture was vigorously stirred. The mixture was centrifuged at 5250 rpm. To the supernatant (30 μL) was added a dilution solvent (60 μL) to give a sample solution (mobile phase A:mobile phase B=9:1 (v/v) was used as a dilution solvent).
The above-mentioned sample solution was injected into an HPLC-MS/MS analysis apparatus, and the obtained peak area was converted to concentration from the analytical curve. The detail of the analysis apparatus is shown below.

Another data set relates to anti-SS-B/La antibody. Description: Anti-SS-B/La IgG ELISA of blood of Sjogren's syndrome animal model. To be noted: 26-week-old NOD mouse, 50 and 250 mg/kg. Here is the method: Blood samples from the 26-week-old NOD mice used in Experimental Example 2 for the measurement of the saliva secretion amount were collected, and ELISA test was carried out for two subsets of anti-SS-A/Ro and anti-SS-B/La found commonly in Sjogren's syndrome. […]
antigen: SS-B (RayBiotech, Inc., MD-27-0019P) plate: Immuno 96 Microwell Plate (Nunc, 442404) washing: 0.1% Tween 20 containing PBS (hereinafter sometimes to be referred to as PBS/T) substrate: One tablet of o-phenylenediamine dihydrochloride (OPD) (Sigma, P-4809) was dissolved in 50 mM citric acid-phosphoric acid buffer pH 5.0 (Sigma, P-4809) (10 mL), and 4 μL aqueous hydrogen peroxide was added.
SS-A and SS-B were each diluted with 50 mM carbonate buffer pH 9.6 (Sigma, C-3041) to 0.5 μg/mL and 1.0 μg/mL, respectively, and the antigen was added to an ELISA plate at 50 μL/well. After incubation at 4° C. overnight, the plate was washed 3 times with PBS/T, added with 2% BSA in PBS at 200 μL/well, and incubated at room temperature for 1 hr. After washing once with PBS/T, the serum diluted with PBS/T (100- to 500-fold) was added at 50 μL/well, and the mixture was incubated at room temperature for 1-2 hr. […]

A further data set has as its system CCR9. Description: CCR9 mRNA expression level in salivary gland tissue, normalized to β-actin. The note with it: 26-week-old NOD mouse, 50 and 250 mg/kg.
Excerpt: as §1

The mark [6] stands for this setting: 23-week-old NOD mouse, 50 mg/kg.

Consider `CC(C)Oc1ccc(S(=O)(=O)Nc2ccc(Cl)cc2C(=O)c2cc[n+]([O-])cc2)cc1` [compound A, N-{4-chloro-2-[(1-oxidopyridin-4-yl)carbonyl]phenyl}-4-(propan-2-yloxy)benzenesulfonamide], for which the “amount of CD8+ T cells in the salivary gland as compared to the vehicle group” value in data set [1] (50 mg/kg) was “decreased to about half”; in data set [1] (250 mg/kg), “about one-third”. Moreover, the tolerability entry with NOD/ShiLtJ mouse [2] is reported as “clearly superior with compound A to compound B”. In addition, the “amount of CD4+ T cells in the salivary gland as compared to the vehicle group” value in data set [3] was “decreased to about half”. Besides, the “onset frequency (positive anti-SS-A/Ro, antibody titer not less than 30 Unit)” value is on record as “about 50%” in the data set with anti-SS-A/Ro antibody (50 mg/kg) and “about 30%” in the data set on anti-SS-A/Ro antibody (250 mg/kg). The “share of treatment group with anti-SS-A/Ro antibody suppressed to the control level” value with anti-SS-A/Ro antibody (250 mg/kg, control C57BL/6 mouse) is recorded as “about 70%”. Besides, the “anti-SS-A/Ro antibody titer in blood” value in the data set on anti-SS-A/Ro antibody (50 and 250 mg/kg) is listed as “decreased in a dose-dependent manner”. The saliva secretion amount entry in the data set on NOD/ShiLtJ mouse [4] (21-week-old NOD mouse, 50 mg/kg orally twice daily from 8-week-old, vehicle about 8.3) was “about 9.8 mg/15 min/g BW”; with NOD/ShiLtJ mouse [4] (21-week-old NOD mouse, 250 mg/kg orally twice daily from 8-week-old, vehicle about 8.3), “about 11.2 mg/15 min/g BW”; in the data set with NOD/ShiLtJ mouse [4] (26-week-old NOD mouse, 50 mg/kg orally twice daily from 8-week-old, vehicle about 4.0) it was “about 5.5 mg/15 min/g BW”; in the data set on NOD/ShiLtJ mouse [4] (26-week-old NOD mouse, 250 mg/kg orally twice daily from 8-week-old, vehicle about 4.0), “about 8.0 mg/15 min/g BW”. The “saliva secretion amount compared to the vehicle group” value with NOD/ShiLtJ mouse [4] (setting [6]) was “significantly suppressed a decrease in the saliva secretion amount”; with NOD/ShiLtJ mouse [4] (23-week-old NOD mouse, 250 mg/kg), “significantly suppressed a decrease in the saliva secretion amount”. Besides, the “increase of saliva secretion amount than the vehicle group” value in the data set with NOD/ShiLtJ mouse [4] (26-week-old NOD mouse, 250 mg/kg) is given as “two-fold increase”. Besides, in the data set on NOD/ShiLtJ mouse [4] (NOD mouse, 50 and 250 mg/kg, 21- and 26-week-old), the “effect on decrease in saliva secretion amount (dose dependence)” value is reported as “significantly suppressed a decrease in the saliva secretion amount in a dose-dependent manner”. The blood exposure result in data set [5] is recorded as “good blood exposure”. Besides, the “metabolism / accumulation in the body” value in data set [5] was “rapidly metabolized without accumulation in the body”. The “anti-SS-B/La antibody titer in blood” value in the data set with anti-SS-B/La antibody is “decreased in a dose-dependent manner”. Further, the “mRNA expression level of CCR9 in the salivary gland as compared to the vehicle group” value in the data set with CCR9 is “tended to decrease in a dose-dependent manner”.
For the molecule `CC(C)(C)c1ccc(S(=O)(=O)Nc2ccc(Cl)cc2C(=O)c2cc[n+]([O-])cc2)cc1` [compound B, N-{4-chloro-2-[(1-oxidopyridin-4-yl)carbonyl]phenyl}-4-(tert-butyl)benzenesulfonamide], the “saliva secretion amount compared to the vehicle group” value in the data set with NOD/ShiLtJ mouse [4] (setting [6]) is “significantly higher”. Moreover, the “dose-dependent effect on saliva secretion amount” value with NOD/ShiLtJ mouse [4] (23-week-old NOD mouse, 50 and 250 mg/kg) is reported as “the dose-dependent effect was not found”. Moreover, in data set [5], the “AUC relative to compound A” value is “about one-tenth that of compound A” and the “metabolism / accumulation in the body” value was “rapidly metabolized without accumulation in the body”.
